{"source": "patent US20090326196A1", "about": "(priority 2006, published 2009)", "key": {"[1]": {"biological_target": "T1, trypsin (from bovine pancreas, EC 3.4.21.4) (Bos taurus, UniProt P00760)", "T1 construct": "trypsin (from bovine pancreas, EC 3.4.21.4); from tissue; host or cells: bovine pancreas", "T1 sequence (P00760 24-246)": "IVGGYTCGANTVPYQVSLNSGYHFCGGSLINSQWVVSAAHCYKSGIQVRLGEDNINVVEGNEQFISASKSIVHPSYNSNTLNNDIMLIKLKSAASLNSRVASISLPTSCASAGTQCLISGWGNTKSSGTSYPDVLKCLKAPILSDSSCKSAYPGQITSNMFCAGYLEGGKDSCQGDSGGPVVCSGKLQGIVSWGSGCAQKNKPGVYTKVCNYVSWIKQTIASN", "assay": "in vitro", "type": "in vitro ADME", "protocol": "The proteolytic stability of peptides towards trypsin (from bovine pancreas, EC 3.4.21.4) was determined by an analytical RP-HPLC assay. […] The enzyme concentration (in 1 mM HCl) was determined by absorbance at 280 nm. […] The amount of enzyme was optimized so that kinetics of proteolytic reactions could be assayed by RP-HPLC (detection at 230 nm). The peptides were incubated with trypsin at 37° C. over a period of 3 h. Aliquots (10 μL) were taken at different reaction times, diluted with 0.2% TFA (440 μL) and stored at −80° C. […] The remaining full-length peptide concentration was normalized with respect to the initial concentration.\nwhere A is the normalized concentration of peptides; k is the pseudo first order rate constant; t is the reaction time in mins; and [A]0 is the initial concentration of peptides. Each fragment cleaved from the full-length peptides was identified by ESI-MS so that cleavage patterns could be established and compared."}, "[2]": {"biological_target": "DPP IV (from porcine kidney, EC 3.4.14.5) (Sus scrofa, UniProt P22411)", "sequence (P22411 whole entry, the tested form may be a part)": "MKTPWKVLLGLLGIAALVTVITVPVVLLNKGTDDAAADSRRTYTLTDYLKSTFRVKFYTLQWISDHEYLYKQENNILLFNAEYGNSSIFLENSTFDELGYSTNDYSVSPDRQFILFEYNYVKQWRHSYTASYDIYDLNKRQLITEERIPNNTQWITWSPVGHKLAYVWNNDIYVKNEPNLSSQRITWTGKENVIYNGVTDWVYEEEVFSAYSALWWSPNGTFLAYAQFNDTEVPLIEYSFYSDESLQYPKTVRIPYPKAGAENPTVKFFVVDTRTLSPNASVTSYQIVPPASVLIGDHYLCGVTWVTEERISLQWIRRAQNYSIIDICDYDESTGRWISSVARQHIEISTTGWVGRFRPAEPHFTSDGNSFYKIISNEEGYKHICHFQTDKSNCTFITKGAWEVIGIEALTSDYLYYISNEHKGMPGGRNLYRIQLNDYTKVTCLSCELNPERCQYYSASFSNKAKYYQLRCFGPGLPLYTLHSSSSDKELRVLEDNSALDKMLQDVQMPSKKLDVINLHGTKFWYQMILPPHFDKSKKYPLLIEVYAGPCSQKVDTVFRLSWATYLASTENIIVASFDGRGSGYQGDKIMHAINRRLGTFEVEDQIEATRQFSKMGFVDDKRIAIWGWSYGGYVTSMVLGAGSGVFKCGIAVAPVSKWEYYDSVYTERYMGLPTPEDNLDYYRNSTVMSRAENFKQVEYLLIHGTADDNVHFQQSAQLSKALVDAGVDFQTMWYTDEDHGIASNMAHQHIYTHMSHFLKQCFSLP", "conditions": "for hydrolysis products by RP-HPLC (FIG. 38): F8: 48 h at 20 U/L and 1 h at 200 U/L, F89: 20 and 60 mins; for fragments detected after incubation with DPP IV: after 24 h incubation", "protocol": "Proteolytic Stability. […] DPP IV has a relative specific requirement for substrate residues at P2, P1, P1′ and P2′ positions regarding the scissile Ala-Glu amide bond. Especially, at P1 position, Pro and Ala are highly favored. […] The proteolytic stability of peptides towards DPP IV (from porcine kidney, EC 3.4.14.5) was determined by analytical RP-HPLC assay (detection at 230 nm). A chromogenic substrate, Gly-Pro-p-nitroanilide, was employed to calibrate specific activity by measuring absorbance at 410 nm using Δε=8800 M^−1·cm^−1 in 100 mM Tris-HCl, pH 8.0. […] Reactions were quenched with 600 μL of 0.2% TFA at time intervals and stored on dry ice until the analysis. An analytical C18 column [J. T. Baker C18, 5 μm, 4 mm×250 mm] was used for separation and quantitation of intact and digested peptides with a binary solvent system can/H2O/0.1% TFA. First order rate constants were obtained as the fitted value±one standard deviation by fitting with the equation: […]\nwhere A is the concentration of peptides; k the first order rate constant; t the reaction time in min; and [A]0 the initial concentration of peptides. The fragments derived from the full-length peptides were manually collected and identified by ESI-MS."}, "[3]": {"system": "human red blood cells (hRBC)", "type": "cell-based", "protocol": "The selectivity with which the peptides are able to lyse bacterial cells compared to mammalian cells was interrogated by a hemolysis assay against human red blood cells (hRBC). […] Our results are consistent with this trend.\nFresh human red blood cells (hRBCs) were centrifuged at 3,500 rpm and washed with PBS buffer until the supernatant was clear. The hRBCs were then resuspended and diluted to a final concentration of 1% (v/v) in PBS and stored at 4° C. […] An aliquot (50 μL) of supernatant was transferred to a new 96-well plate containing 50 μL H2O in each well. The absorbance at 415 nm was measured using a plate reader. Wells containing melittin at 100-400 μg/mL served as positive controls, and wells containing only buffer and hRBCs served as negative controls. The percentage hemolysis was calculated using the equation:\nwhere complete hemolysis is defined as the average absorbance of all wells containing 100-400 μg/[…] melittin."}, "[4]": {"system": "trypsin (from bovine pancreas, EC 3.4.21.4)", "assay": "1 μg trypsin in 200 μL of PBS buffer (pH 7.4, 10 mM PO4^3−, 150 mM NaCl)", "conditions": "37° C., up to 3 h"}, "[5]": {"system": "DPP IV (from porcine kidney, EC 3.4.14.5)", "assay": "DPP IV 20 unit/L in 50 mM Tris-HCl, 1 mM EDTA, pH 7.6", "conditions": "37° C., up to 48 h"}, "[6]": {"system": "trypsin (from bovine pancreas, EC 3.4.21.4)", "assay": "0.5 μg trypsin in 200 μL of PBS buffer (pH 7.4, 10 mM PO4^3−, 150 mM NaCl)", "conditions": "37° C., up to 3 h"}}, "note": "Square brackets hold non-standard residues; d marks the D form. Peptide text beside a SMILES is read from it. Leu(5,5,5,5',5',5'-F6) = N[C@@H](CC(C(F)(F)F)C(F)(F)F)C(=O)O"}
{"compound": "CC(C)C[C@H](NC(=O)CNC(=O)[C@H](C)NC(=O)[C@@H](N)CCCNC(=N)N)C(=O)N[C@@H](CCC(N)=O)C(=O)N[C@@H](Cc1ccccc1)C(=O)N1CCC[C@H]1C(=O)N[C@H](C(=O)NCC(=O)N[C@@H](CCCNC(=N)N)C(=O)N[C@H](C(=O)N[C@@H](Cc1c[nH]cn1)C(=O)N[C@@H](CCCNC(=N)N)C(=O)N[C@@H](CC(C(F)(F)F)C(F)(F)F)C(=O)N[C@@H](CC(C(F)(F)F)C(F)(F)F)C(=O)N[C@@H](CCCNC(=N)N)C(=O)N[C@@H](CCCCN)C(=O)O)C(C)C)C(C)C", "note": "[BII5F2] (H-RAGLQFPVGRVHR[Leu(5,5,5,5',5',5'-F6)][Leu(5,5,5,5',5',5'-F6)]RK-OH)", "values": [{"measurement": "fold more resistant to hydrolysis by trypsin", "setting": "[1]", "value": "~3", "unit": "fold"}]}
{"compound": "CC[C@H](C)[C@H](NC(=O)[C@H](Cc1ccccc1)NC(=O)[C@H](CCC(=O)O)NC(=O)[C@H](CCCCN)NC(=O)[C@H](C)NC(=O)[C@H](C)NC(=O)[C@H](CCC(N)=O)NC(=O)CNC(=O)[C@H](CCC(=O)O)NC(=O)[C@H](CC(C)C)NC(=O)[C@H](Cc1ccc(O)cc1)NC(=O)[C@H](CO)NC(=O)[C@H](CO)NC(=O)[C@@H](NC(=O)[C@H](CC(=O)O)NC(=O)[C@H](CO)NC(=O)[C@@H](NC(=O)[C@H](Cc1ccccc1)NC(=O)[C@@H](NC(=O)CNC(=O)[C@H](CCC(=O)O)NC(=O)[C@H](CC(C(F)(F)F)C(F)(F)F)NC(=O)[C@@H](N)Cc1cnc[nH]1)[C@@H](C)O)[C@@H](C)O)C(C)C)C(=O)N[C@@H](C)C(=O)N[C@@H](Cc1c[nH]c2ccccc12)C(=O)N[C@@H](CC(C)C)C(=O)N[C@H](C(=O)N[C@@H](CCCCN)C(=O)NCC(=O)N[C@@H](CCCNC(=N)N)C(N)=O)C(C)C", "note": "[Peptide F8]", "values": [{"measurement": "hydrolysis products by RP-HPLC (FIG. 38)", "setting": "[2]", "value": "No detectable hydrolysis products"}, {"measurement": "fragments detected after incubation with DPP IV", "setting": "[2]", "value": "no fragments were detected"}]}
{"compound": "CC[C@H](C)[C@H](NC(=O)[C@H](Cc1ccccc1)NC(=O)[C@H](CCC(=O)O)NC(=O)[C@H](CCCCN)NC(=O)[C@H](C)NC(=O)[C@H](C)NC(=O)[C@H](CCC(N)=O)NC(=O)CNC(=O)[C@H](CCC(=O)O)NC(=O)[C@H](CC(C)C)NC(=O)[C@H](Cc1ccc(O)cc1)NC(=O)[C@H](CO)NC(=O)[C@H](CO)NC(=O)[C@@H](NC(=O)[C@H](CC(=O)O)NC(=O)[C@H](CO)NC(=O)[C@@H](NC(=O)[C@H](Cc1ccccc1)NC(=O)[C@@H](NC(=O)CNC(=O)[C@H](CC(C(F)(F)F)C(F)(F)F)NC(=O)[C@H](C)NC(=O)[C@@H](N)Cc1c[nH]cn1)[C@@H](C)O)[C@@H](C)O)C(C)C)C(=O)N[C@@H](C)C(=O)N[C@@H](Cc1c[nH]c2ccccc12)C(=O)N[C@@H](CC(C)C)C(=O)N[C@H](C(=O)N[C@@H](CCCCN)C(=O)NCC(=O)N[C@@H](CCCNC(=N)N)C(N)=O)C(C)C", "note": "[Peptide F9]", "values": [{"measurement": "resistance to DPP IV, in words", "setting": "[2]; hexafluoroleucine at P1′ and P2′ positions", "value": "moderate enhanced resistance"}]}
{"compound": "CC[C@H](C)[C@H](NC(=O)[C@H](Cc1ccccc1)NC(=O)[C@H](CCC(=O)O)NC(=O)[C@H](CCCCN)NC(=O)[C@H](C)NC(=O)[C@H](C)NC(=O)[C@H](CCC(N)=O)NC(=O)CNC(=O)[C@H](CCC(=O)O)NC(=O)[C@H](CC(C)C)NC(=O)[C@H](Cc1ccc(O)cc1)NC(=O)[C@H](CO)NC(=O)[C@H](CO)NC(=O)[C@@H](NC(=O)[C@H](CC(=O)O)NC(=O)[C@H](CO)NC(=O)[C@@H](NC(=O)[C@H](Cc1ccccc1)NC(=O)[C@@H](NC(=O)CNC(=O)[C@H](CC(C(F)(F)F)C(F)(F)F)NC(=O)[C@H](CC(C(F)(F)F)C(F)(F)F)NC(=O)[C@@H](N)Cc1cnc[nH]1)[C@@H](C)O)[C@@H](C)O)C(C)C)C(=O)N[C@@H](C)C(=O)N[C@@H](Cc1c[nH]c2ccccc12)C(=O)N[C@@H](CC(C)C)C(=O)N[C@H](C(=O)N[C@@H](CCCCN)C(=O)NCC(=O)N[C@@H](CCCNC(=N)N)C(N)=O)C(C)C", "note": "[Peptide F89]", "values": [{"measurement": "hydrolysis products by RP-HPLC (FIG. 38)", "setting": "[2]", "value": "No detectable hydrolysis products"}, {"measurement": "fragments detected after incubation with DPP IV", "setting": "[2]", "value": "no fragments were detected"}]}
{"compound": "CC[C@H](C)[C@H](NC(=O)CN)C(=O)NCC(=O)N[C@@H](CCCCN)C(=O)N[C@@H](Cc1ccccc1)C(=O)N[C@@H](CC(C(F)(F)F)C(F)(F)F)C(=O)N[C@@H](Cc1cnc[nH]1)C(=O)N[C@@H](C)C(=O)N[C@@H](C)C(=O)N[C@@H](CCCCN)C(=O)N[C@@H](CCCCN)C(=O)N[C@@H](Cc1ccccc1)C(=O)N[C@@H](C)C(=O)N[C@@H](CCCCN)C(=O)N[C@@H](C)C(=O)N[C@@H](Cc1ccccc1)C(=O)N[C@H](C(=O)N[C@@H](C)C(=O)N[C@@H](CCC(=O)O)C(=O)N[C@@H](CC(C(F)(F)F)C(F)(F)F)C(=O)N[C@@H](CCSC)C(=O)N[C@@H](CC(N)=O)C(=O)N[C@@H](CO)C(N)=O)C(C)C", "note": "[Peptide M2F2] (H-GIGKF[Leu(5,5,5,5',5',5'-F6)]HAAKKFAKAFVAE[Leu(5,5,5,5',5',5'-F6)]MNS-NH2)", "values": [{"measurement": "hemolytic activity relative to parent peptide, in words", "setting": "[3]", "value": "slightly more hemolytic"}, {"measurement": "more stable to proteolysis by a factor, relative to M2", "setting": "[1]", "value": "~1.2"}]}
{"compound": "GIGKFLHAAKKFAKAFVAEIMNS", "values": [{"measurement": "fragment found", "setting": "[4]", "value": "M2 (1-14), first_seen"}]}
{"compound": "GIGKFXHAAKKFAKAFVAEXMNS", "values": [{"measurement": "fragment found", "setting": "[4]", "value": "M2F2 (1-14), first_seen"}]}
{"compound": "HAXGTFTSDVSSYLEGQAAKEFIAWLVKGR", "values": [{"measurement": "fragment found", "setting": "[5]", "value": "corresponding peptide fragment GLP-1 (9-36) amide, major"}]}
{"compound": "HXEGTFTSDVSSYLEGQAAKEFIAWLVKGR", "values": [{"measurement": "not cleaved", "setting": "[5]", "value": "no fragments were detected after 24 h incubation"}]}
{"compound": "HXXGTFTSDVSSYLEGQAAKEFIAWLVKGR", "values": [{"measurement": "not cleaved", "setting": "[5]", "value": "no fragments were detected after 24 h incubation"}]}
{"compound": "TRSSRAGLQFPVGRVHRXXRK", "values": [{"measurement": "cleaved bond", "setting": "[6]", "value": "initial P1 site of cleavage BII1F2 (R14), first_seen"}, {"measurement": "fragment found", "setting": "[6]", "value": "BII1F2 (6-21), first_seen"}]}
{"compound": "buforin II[1-21] [BII1, reference compound]", "values": [{"measurement": "initial P1 site of cleavage", "setting": "[1]", "value": "R17"}]}
{"compound": "magainin 2 [Peptide M2, reference compound]", "values": [{"measurement": "time to complete hydrolysis", "setting": "[1]", "value": 33, "unit": "min"}]}
